System: Hepatocyte spheroids
Test: Cell viability is assessed by cellular ATP assay using CellTiter-Glo Luminescent kit. Viability is expressed as average RLU from biological replicates and normalized to negative control.Toxicity is defined as those with normalized ATP significantly less than 80 percent of the negative control.
Assay type: functional, Homo sapiens
Set-up: unit not given here

Going from `O=C(NOC[C@H](O)CO)c1ccc(F)c(F)c1Nc1ccc(I)cc1F` [MIRDAMETINIB] to `Cn1cnc2c(F)c(Nc3ccc(Br)cc3Cl)c(C(=O)NOCCO)cc21` [SELUMETINIB], the Proliferation rises from 0 to 0.04298.

First: O=S(=O)(NC1CCC(c2cc(F)ccc2F)(S(=O)(=O)c2ccc(Cl)cc2)CC1)C(F)(F)F (stereo not drawn) [MRK-560]
Second: NC(=O)c1ccc(N(C(N)=O)c2c(F)cccc2F)nc1-c1ccc(F)cc1F [VX-702]
The Proliferation of the first is higher: 0.1212 for the first, 0.02591 for the second.

Going from `Cc1cc(Nc2nccc(C)n2)cc(-c2cnc([C@@]3(O)CC[C@H](C(=O)O)C(C)(C)C3)s2)c1` [MRL-SYKi] to `Cn1cc(-c2ccc3nnc(Sc4ccc5ncccc5c4)n3n2)cn1` [SGX-523], the Proliferation rises from 0 to 0.3569.

Compared with `CC(=O)Nc1c(C(C)=O)c(=O)n(C)c2nc(-c3ccc(Cl)cc3Cl)c(-c3ccc(Cl)cc3)cc12` [NAPHTHYRIDINONE], `CC(=O)Nc1cccc(-n2c(=O)n(C3CC3)c(=O)c3c(Nc4ccc(I)cc4F)n(C)c(=O)c(C)c32)c1` [TRAMETINIB] is lower in Proliferation: 0.005874 for the first, 0 for the second.

First: Cn1c(=O)c(Oc2ccc(F)cc2F)cc2cnc(NC(CCO)CCO)nc21 [PAMAPIMOD]
Second: O=C1c2ccc(Nc3ccc(F)cc3F)cc2CCc2ccc(OC[C@H](O)CO)cc21 [Skepinone-L]
The Proliferation of the first is lower: 0.003154 for the first, 0.2651 for the second.

First: COc1cccc(CNC(=O)c2nc3scc(COCc4ccc(C(=O)O)cc4)c3c(=O)[nH]2)c1 [T-26c]
Second: C[C@@H]1CCN(C(=O)CC#N)C[C@@H]1N(C)c1ncnc2[nH]ccc12.O=C(O)CC(O)(CC(=O)O)C(=O)O [TOFACITINIB CITRATE]
The Proliferation of the first is higher: 0.5771 for the first, 0.01527 for the second.

`Nc1nc2[nH]cnc2c(=S)[nH]1` [THIOGUANINE] showed a Proliferation of 0.05104.

Source: ChEMBL document CHEMBL5724564, “Patient-derived NASH model to assess the effects of chemical probes on hepatocyte regenerations” (2024)
